The source of these data is patent publication US20130210907A1, “METHOD FOR PREVENTING OR TREATING ENTEROCHROMAFFIN CELL HYPERPLASIA-RELATED DISEASES BY QUERCETIN ADMINISTRATION” (HONG KONG BAPTIST UNIVERSITY, priority 2012, published 2013).

The test system of one series is PI-IBS rats. The experiment in a line: EMG recording: visceral motor response to graded colorectal distension (CRD). Format: in vivo, rat. The protocol: Sprague-Dawley male rats (Laboratory Animal Services Centre, The Chinese University of Hong Kong) aged 6 weeks with body weight around 220 g are used to develop PI-IBS model. Briefly, rats are fasted for 24 h, and deeply anesthetized with chloral hydrate (350 mg.kg^−1, i.p.). After induction of colitis by 2,4,6-trinitrobenzenesulfonic acid solution (TNBS, 5 mg/0.8 ml/rat, in 50% ethanol, 8 cm from anus) administration, the rats are allowed to recover for at least 4 weeks before use. The control rats are similarly administered with 0.8 ml saline instead of TNBS. Only the rats that have completely recovered from the initial inflammation and acquired visceral hypersensitivity are used as the PI-IBS rats.
6 groups of 12 rats are tested. Normal rats (Group 1) are treated with water. PI-IBS rats are randomly divided into 5 groups and orally treated with water (Group 2), Doxantrazole (mast cell stabilizer, 30 mg/kg/d, Group 3), and Quercetin (Group 4-6) at the dose of 5, 10, and 20 mg/kg/d, respectively. After 2 weeks daily drug administration, 5 rats in each group are used to measure pain threshold pressure by abdominal withdrawal reflex (AWR) test, and the remaining […] is used for electromyography (EMG) recording.
AWR test is performed as previously described in Al-Chaer E D, Kawasaki M, Pasricha P J. A new model of chronic visceral hypersensitivity in adult rats induced by colon irritation during postnatal development. Gastroenterology. 2000 November; 119(5):1276-85. Briefly, rats are lightly anesthetized with ether; a latex balloon is inserted into the descending colon. Rats are then allowed to recover for about 1 h. The tube of the balloon is connected via a Y-connector to a sphygmomanometer and colorectal distension is applied in increments of 5 mmHg until a visible contraction of the abdominal wall is observed by an investigator blinded to the treatment. The pain threshold pressure is defined as the intensity of colorectal distension (CRD) that elicited an observable AWR, i.e. a sudden and persistent abdominal muscle contraction with abdomen lift off the platform. The pain threshold pressure of all groups is recorded and repeated five times with intervals of at least 5 minutes for recovery. EMG recording are conducted as previously described in Tammpere A, Brusberg M, Axenborg J, Hirsch I, Larsson H, Lindstrom E. Evaluation of pseudo-affective responses to noxious colorectal distension in rats by manometric recordings. Pain. 2005 August; 116(3):220-6 and Li Z, Zhang X J, Xu H X, Sung J J, Bian Z X. Intracolonical administration of protease-activated receptor-2 agonists produced visceral hyperalgesia by up-regulating serotonin in the colon of rats. Eur J. Pharmacol. 2009 Mar. 15; 606(1-3):199-204. Firstly, a surgical operation is made to implant the electrodes into the left external abdominal oblique muscles 7 days before EMG recording. After the last drug administration, a flexible latex balloon is inserted into the rat descending colon, and the rats are allowed to accommodate for 1 h. CRD is initiated, and the EMG signal is amplified and filtered by Power Lab System. Graded colorectal distension (20, 40, 60, and 80 mmHg; 20 s duration; 2 min inter-stimulus interval) is carried out for total three cycles to each rat. The changes of area under the curve (AUC) are calculated using that during 20 s distension period over the 20 s baseline.

Series [1] has as its system QGP-1 cells. The experiment in a line: Cell viability (MTT assay). The settings on record: Homo sapiens. Format: cell-based. The protocol:
To investigate the underlying mechanisms of Quercein on EC cell hyperplasia, a EC cell model, QGP-1 cell line is used as EC cell model. Human pancreatic carcinoma QGP-1 cells (JCRB0183, HSRRB, Japan) are cultured in RPMI 1640 supplemented with 10% fetal bovine serum, 100 IU/ml penicillin, and 100 μg/ml streptomycin in a humidified atmosphere of 95% air and 5% CO2 at 37° C. Cells are passaged using 0.025% trypsin and 0.01% EDTA. Cells are trypsinized and seeded in 96-well culture dishes at a density of 5,000-8,000 cells/well and cultured for 24 h or 48 h in the presence of Quercetin (0-100 μM, 0.01% DMSO).
3-(4,5-dimethylthiazol-2yl-)-2,5-diphenyl tetrazolium bromide (MTT) is used to evaluate cell viability. In this assay, cells are seeded in 96-well dishes and cultured for […] in the presence of Quercetin. Subsequently, the culture medium is replaced with 100 μl/well fresh medium containing 0.5 mg/ml MTT, and the cells are further incubated for 4 h at 37° C. The reaction is stopped by adding 100 μl/well 10% SDS in 0.1 M HCl, the absorbance of the plates is read at 570 nm The percent of cell survival is calculated by comparing the average absorbance of the Quercetin treated cells with the corresponding absorbance of the DMSO treated cells. All doses are tested in triplicates and repeated for at least three times.

For series [2], the system named is QGP-1 cells. Kind of series: Cell cycle analysis by flow cytometry (propidium iodide). The format is cell-based, human. The settings on record: 24 h. On the procedure:
QGP-1 cells are seeded at a density of 10×10^4 cells/ml and pre-incubated overnight. After incubation with or without Quercetin (0-100 μM) for 24 h, cells are harvested by trypsinization and fixed in 70% ethanol at 4° C. overnight. The cells are centrifuged to remove ethanol and washed twice using ice-cold PBS. The cell pallets are resuspended in 500 n1 propidium iodide solution (0.1% Triton X-100, 50 μg/ml propidium iodide in PBS) containing 50 μg/ml RNase and incubated at 37° C. for 30 min and protected from the light. The DNA content of 10,000 cells is detected by BD FASCanto Flow Cytometry and analyzed using […] software (Becton Dickinson, Heidelberg, Germany). The data are representative of those obtained in at least three experiments.

The test system of the next series is humans. The conditions noted are these: 1000 mg/kg/day orally for several months; cited from earlier work.

Structures are written as SMILES.

In the case of `O=c1c(O)c(-c2ccc(O)c(O)c2)oc2cc(O)cc(O)c12` [Quercetin, 2-(3,4-dihydroxyphenyl)-3,5,7-trihydroxy-4H-chromen-4-one], the “AUC value under graded distension pressures (EMG)” value in the series with PI-IBS rats (5 mg/kg i.g., 20 mmHg) was 161.22 ± 41.53; in the series with PI-IBS rats (5 mg/kg i.g., 40 mmHg) it was 463.55 ± 12.42; in the series with PI-IBS rats (5 mg/kg i.g., 60 mmHg) it was 586.42 ± 56.68; in the series with PI-IBS rats (5 mg/kg i.g., 80 mmHg), 906.84 ± 41.08; in the series on PI-IBS rats (10 mg/kg i.g., 20 mmHg) it was 124.61 ± 67.68; in the series on PI-IBS rats (10 mg/kg i.g., 40 mmHg) it was 386.85 ± 65.68. Also, the “AUC value under graded distension pressures (EMG)” value with PI-IBS rats (10 mg/kg i.g., 60 mmHg) is on record as 530.98 ± 21.08; in the series on PI-IBS rats (10 mg/kg i.g., 80 mmHg), 842.34 ± 62.92; with PI-IBS rats (20 mg/kg i.g., 20 mmHg), 88.28 ± 43.43; in the series with PI-IBS rats (20 mg/kg i.g., 40 mmHg) it was 319.78 ± 118.03; with PI-IBS rats (20 mg/kg i.g., 60 mmHg) it was 470.73 ± 173.52; with PI-IBS rats (20 mg/kg i.g., 80 mmHg) it was 725.28 ± 192.44. Further, the cytotoxicity at 100 µM in the series with QGP-1 cells [1] (QGP-1, 24 h, at about 100 μM, read-out: Reduction of cell viability in comparison with the control) was approximately 50%. The IC50 in the series on QGP-1 cells [1] (QGP-1, 48 h incubation) is approximately 50 µM. In addition, the “Cells in G0/G1 phase” value in the series on QGP-1 cells [2] (QGP-1, 25 μM) is 56.0 ± 3.5%; in the series with QGP-1 cells [2] (QGP-1, 50 μM), 47.8 ± 4.0 %; in the series with QGP-1 cells [2] (QGP-1, 100 μM) it was 8.4 ± 1.7 %. Also, the “Cells in G2/M phase” value came to 21.8 ± 3.2% in the series with QGP-1 cells [2] (QGP-1, 25 μM); 20.2 ± 4.29% in the series with QGP-1 cells [2] (QGP-1, 50 μM); 47.7 ± 2.2 % in the series with QGP-1 cells [2] (QGP-1, 100 μM). Also, the “Cells in S phase” value in the series with QGP-1 cells [2] (QGP-1, 25 μM) is 22.3 ± 0.3%; in the series on QGP-1 cells [2] (QGP-1, 50 μM), 32.0 ± 0.4 %; with QGP-1 cells [2] (QGP-1, 100 μM), 43.9 ± 0.7 %. The “Toxicity on oral administration to humans” value with humans was “no toxicity”.
